Patent US7879876B2, “Sulfonamide derivatives and use thereof for the modulation of metalloproteinases” (Merck Serono SA, priority 2005, dated 2011)

How the values were obtained:
Assay type in all cases: biochemical
collagenase (MMP-1) = target: T1, collagenase (MMP-1) (Homo sapiens, UniProt P03956); test: MMP-1 enzyme inhibition assay (coumarin-labelled peptide substrate); conditions: read-out: percentage inhibition MMP1
T1 sequence (P03956 100-469): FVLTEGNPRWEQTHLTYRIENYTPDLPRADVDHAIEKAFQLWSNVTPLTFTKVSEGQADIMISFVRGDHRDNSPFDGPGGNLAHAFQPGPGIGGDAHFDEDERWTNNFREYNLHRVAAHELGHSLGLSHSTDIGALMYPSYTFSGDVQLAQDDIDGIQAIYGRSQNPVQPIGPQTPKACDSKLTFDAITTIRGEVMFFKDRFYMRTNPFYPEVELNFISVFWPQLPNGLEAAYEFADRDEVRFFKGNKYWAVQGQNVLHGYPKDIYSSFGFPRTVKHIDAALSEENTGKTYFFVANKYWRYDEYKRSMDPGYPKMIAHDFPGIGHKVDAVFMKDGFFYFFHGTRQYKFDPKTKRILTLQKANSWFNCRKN
Method in brief: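 Recombinant human MMP-1, APMA-activated if needed, in Tris-HCl pH 7.6 with NaCl, CaCl2 and 0.05% Brij 35; McaPLGLDpaAR substrate added as 8 μM solution, 2 h at 37 °C. Fluorescence (320/405 nm) read without stopping; IC50 from 10 duplicate concentrations (100 μM–5.1 nM) by four-parameter fit.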

[1] = target: 92 kDa gelatinase (MMP-9) (Homo sapiens, UniProt P14780); test: MMP-9 enzyme inhibition assay (coumarin-labeled peptide substrate); conditions: read-out: percentage inhibition MMP9
Method in brief: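 Recombinant human MMP-9 (APMA-activated if needed) was assayed in 100 mM Tris-HCl pH 7.6, 100 mM NaCl, 10 mM CaCl2, 0.05% Brij 35, with McaPLGLDpaAR substrate at 37° C. for 2 h. Fluorescence was read at ex 320/em 405 nm over ten 3-fold compound doses (100 μM–5.1 nM) in duplicate. IC50 came from a four-parameter fit.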

human ADAM17 (TACE) = human ADAM17 (TACE) (Homo sapiens, UniProt P78536); test: TACE enzyme inhibition assay
Method: Compounds of the invention were tested to assess their activities as inhibitors of MMP-1, MMP-2, MMP-9, MMP-14, MMP-12 and TACE. MMP-9 Assay Protocol
Compounds of the invention can be tested for inhibitory activity against human ADAM17 in an assay using human Mca-(endo-1a-Dap(Dnp)-TNF-alpha(−5 to +6)amide as substrate (FEBS Letters, 2000, 275-279).
Stock solutions are prepared as followed: • Assay Buffer: 20 mM Hepes pH 7.5 (Fluka) containing 0.05% Brij 35 (Fluka) • Substrate: 6.1 mM human Mca-(endo-1a-Dap(Dnp)-TNF-alpha(−5 to +6)amide (Bachem) stock solution in 100% DMSO (stored at −20° C.); diluted to 5 μM in assay buffer. • Enzyme: Recombinant human ADAM17, appropriately diluted in assay buffer (1.5 μg/ml).
Test Compounds are prepared initially as 10 mM compound solution in 100% DMSO, diluted to 1 mM in 100% DMSO, then serially diluted 3-fold in 100% DMSO across a 96-well microtitre plate. Assay concentration range is typically between 100 μM to 0.01 nM. The assay is performed in a total volume of 100 μL per well in 96-well microtitre plates. Appropriate concentrations of test compounds dissolved in 10 μL of DMSO are added to the wells, followed by substrate solution (50 μL, 5 μM prepared by dilution of DMSO stock in assay buffer) and enzyme solution (40 μL). For each as say ten concentrations of test compound are examined in […]. Control wells lack either enzyme or test compound. The reactions are incubated at room temperature for 1.5 hours. The fluorescence at 405 nm is measured immediately with a fluorometer using 355 nm excitation, without stopping the reaction.
The effect of the test compound is determined from the dose response curve generated by the 10 duplicate concentrations of inhibitor. The IC50 (the concentration of compound required to give a 50% decrease in enzyme activity) is obtained by fitting data to the equation, Y=a+((b−a)/(1+(c/X)^d)). (Y=inhibition achieved for a particular dose; X=the dose in nM; a=minimum y or zero % inhibition; b=maximum y or 100% inhibition; c=is the IC50; d=is the slope). The result is rounded to one significant figure.

Sequence of 92 kDa gelatinase (MMP-9) (P14780 107-707 limits assumed): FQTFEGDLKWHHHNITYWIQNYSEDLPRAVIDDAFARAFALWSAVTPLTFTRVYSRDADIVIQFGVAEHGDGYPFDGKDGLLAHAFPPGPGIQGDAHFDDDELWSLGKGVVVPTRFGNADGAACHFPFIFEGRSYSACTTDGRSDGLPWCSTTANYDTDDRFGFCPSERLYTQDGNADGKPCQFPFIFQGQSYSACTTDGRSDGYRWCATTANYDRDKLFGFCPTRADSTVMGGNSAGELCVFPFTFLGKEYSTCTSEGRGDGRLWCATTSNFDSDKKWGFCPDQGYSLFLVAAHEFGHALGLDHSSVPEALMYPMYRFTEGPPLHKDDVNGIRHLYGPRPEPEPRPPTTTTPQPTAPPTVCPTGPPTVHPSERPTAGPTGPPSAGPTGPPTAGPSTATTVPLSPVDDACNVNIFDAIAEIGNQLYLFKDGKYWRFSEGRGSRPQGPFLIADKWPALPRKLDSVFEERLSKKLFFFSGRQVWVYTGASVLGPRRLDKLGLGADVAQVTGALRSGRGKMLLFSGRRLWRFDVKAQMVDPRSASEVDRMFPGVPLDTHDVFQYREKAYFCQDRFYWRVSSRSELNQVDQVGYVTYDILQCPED
Sequence of human ADAM17 (TACE) (P78536 215-824): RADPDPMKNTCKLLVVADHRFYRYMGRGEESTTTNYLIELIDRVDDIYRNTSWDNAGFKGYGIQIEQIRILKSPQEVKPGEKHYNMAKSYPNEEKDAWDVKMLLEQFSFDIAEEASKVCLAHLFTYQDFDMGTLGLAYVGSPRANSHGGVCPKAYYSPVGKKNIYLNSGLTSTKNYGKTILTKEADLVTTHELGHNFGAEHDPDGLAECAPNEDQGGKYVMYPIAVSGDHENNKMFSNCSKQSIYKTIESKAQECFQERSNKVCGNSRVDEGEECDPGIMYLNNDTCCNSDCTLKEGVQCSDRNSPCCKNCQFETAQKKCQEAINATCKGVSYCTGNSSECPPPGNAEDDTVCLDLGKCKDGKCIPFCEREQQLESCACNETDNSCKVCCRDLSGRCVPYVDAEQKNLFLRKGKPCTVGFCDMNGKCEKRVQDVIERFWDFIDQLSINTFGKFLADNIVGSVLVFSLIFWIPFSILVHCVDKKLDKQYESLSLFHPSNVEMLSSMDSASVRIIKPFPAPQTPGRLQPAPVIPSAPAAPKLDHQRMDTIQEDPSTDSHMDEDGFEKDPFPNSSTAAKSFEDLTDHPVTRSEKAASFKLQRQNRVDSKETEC

inhibition at 5 µM (collagenase (MMP-1)) | inhibition at 5 µM [1] | IC50 (human ADAM17 (TACE)) | inhibition at 0.1 µM ([1]; @ 0.1 μM) | inhibition at 0.1 µM (collagenase (MMP-1)) | Compound
2% | 47% | 813 nM | – | – | CC(C)c1ccc2c(c1)CCN(S(=O)(=O)C[C@H]([C@H]1CCCO1)N(O)C=O)C2 [Example 45, N-hydroxy-N-{(1S)-2-[(6-isopropyl-3,4-dihydroisoquinolin-2(1H)-yl)sulfonyl]-1-[(2R)-tetrahydrofuran-2-yl]ethyl}formamide]
40% | 40% | 933 nM | – | – | O=CN(O)C(CS(=O)(=O)N1CCc2cc(C(F)(F)F)ccc2C1)[C@H]1CCCO1 (stereo partly drawn) [Example 47, N-hydroxy-N-(1-[(2R)-tetrahydrofuran-2-yl]-2-{[6-(tri-fluoromethyl)-3,4-dihydroisoquinolin-2(1H)-yl]sulfonyl}ethyl)formamide]
14% | 10% | 92 nM | – | – | O=CN(O)C(CS(=O)(=O)N1CCc2ccc(F)cc2C1)c1ccoc1 (stereo not drawn) [Example 52, N-[2-[(7-fluoro-3,4-dihydroisoquinolin-2(1H)-yl)sulfonyl]-1-(3-furyl)ethyl]-N-hydroxyformamide]
16% | 5% | 245 nM | – | – | O=CN(O)C(CS(=O)(=O)N1CCc2ccc(F)cc2C1)C1CCN(Cc2ccccc2)CC1 (stereo not drawn) [Example 53, N-{1-(1-benzylpiperidin-4-yl)-2-[(7-fluoro-3,4-dihydro-isoquinolin-2(1H)-yl)sulfonyl]ethyl}-N-hydroxyformamide]
35% | 32% | > 5000 nM | – | – | O=CN(O)C(COCc1ccccc1)CS(=O)(=O)N1CCc2ccc(C(F)(F)F)cc2C1 (stereo not drawn) [Example 59, N-[2-(benzyloxy)-1-({[7-(trifluoromethyl)-3,4-dihydro-isoquinolin-2(1H)-yl]sulfonyl}methyl)ethyl]-N-hydroxyformamide]
6% | 0% | 79 nM | – | – | O=CN(O)C(CS(=O)(=O)N1CCc2ccc(F)cc2C1)C1CCCC1 (stereo not drawn) [Example 60, N-{1-cyclopentyl-2-[(7-fluoro-3,4-dihydroisoquinolin-2(1H)-yl)sulfonyl]ethyl}-N-hydroxyformamide]
34% | 7% | > 5000 nM | – | – | CCCCCC(C)(C)C(CS(=O)(=O)N1CCc2cc(C(F)(F)F)ccc2C1)N(O)C=O (stereo not drawn) [Example 63, N-[2,2-dimethyl-1-({[6-(trifluoromethyl)-3,4-dihydro-isoquinolin-2(1H)-yl]sulfonyl}methyl)heptyl]-N-hydroxyformamide]
36% | 32% | 91 nM | – | – | O=CN(O)C(CS(=O)(=O)N1CCc2ccc(Br)cc2C1)C1CCCC1 (stereo not drawn) [Example 64, N-{2-[(7-bromo-3,4-dihydroisoquinolin-2(1H)-yl)sulfonyl]-1-cyclopentylethyl}-N-hydroxyformamide]
30% | 13% | 490 nM | – | – | CC(C)(C)C(CS(=O)(=O)N1CCc2ccc(Cl)cc2C1)N(O)C=O (stereo not drawn) [Example 65, N-(1-{[(7-chloro-3,4-dihydroisoquinolin-2(1H)-yl)sulfonyl]methyl}-2,2-dimethylpropyl)-N-hydroxyformamide]
0% | 31% | 268 nM | – | – | O=CN(O)C(CS(=O)(=O)N1CCc2ccc(-c3ccsc3)cc2C1)C1CCCC1 (stereo not drawn) [Example 68, N-(1-cyclopentyl-2-{[7-(3-thienyl)-3,4-dihydroisoquinolin-2(1H)-yl]sulfonyl}ethyl)-N-hydroxyformamide]
4% | 26% | 606 nM | – | – | O=CN(O)C(CS(=O)(=O)N1CCc2ccc(-c3ccccc3)cc2C1)C1CCCC1 (stereo not drawn) [Example 69, N-{1-cyclopentyl-2-[(7-phenyl-3,4-dihydroisoquinolin-2(1H)-yl)sulfonyl]ethyl}-N-hydroxyformamide]
0% | 3% | > 5000 nM | – | – | O=CN(O)C(CS(=O)(=O)N1CCc2ccc(-c3cccc(O)c3)cc2C1)C1CCCC1 (stereo not drawn) [Example 70, N-(1-cyclopentyl-2-{[7-(3-hydroxyphenyl)-3,4-dihydroisoquinolin-2(1H)-yl]sulfonyl}ethyl)-N-hydroxyformamide]

More lines, now with the values behind:

Compound | inhibition at 5 µM (collagenase (MMP-1)) | inhibition at 5 µM [1] | IC50 (human ADAM17 (TACE)) | inhibition at 0.1 µM ([1]; @ 0.1 μM) | inhibition at 0.1 µM (collagenase (MMP-1))
O=CN(O)C(CCO)CS(=O)(=O)N1CCc2ccc(Cl)cc2C1 (stereo not drawn) [Example 48, N-(1-{[(7-chloro-3,4-dihydroisoquinolin-2(1H)-yl)sulfonyl]-methyl}-3-hydroxypropyl)-N-hydroxyformamide] | 26% | 8% | 269 nM | – | –
O=CN(O)C(CO)CS(=O)(=O)N1CCc2cc(Cl)c(Cl)cc2C1 (stereo not drawn) [Example 49, N-[2-[(6,7-dichloro-3,4-dihydroisoquinolin-2(1H)-yl)-sulfonyl]-1-(hydroxymethyl)ethyl]-N-hydroxyformamide] | 29% | 43% | 239 nM | – | –
CC(C)C(CS(=O)(=O)N1CCc2ccc(-c3ccc(F)cc3)cc2C1)N(O)C=O (stereo not drawn) [Example 50, N-[1-({[7-(4-fluorophenyl)-3,4-dihydroisoquinolin-2(1H)-yl]sulfonyl}methyl)-2-methylpropyl]-N-hydroxyformamide] | 0% | 72% | 397 nM | 4% | –
CC(C)CC(CS(=O)(=O)N1CCc2ccc(Br)cc2C1)N(O)C=O (stereo not drawn) [Example 55, N-(1-{[(7-bromo-3,4-dihydroisoquinolin-2(1H)-yl)-sulfonyl]methyl}-3-methylbutyl)-N-hydroxyformamide] | 69% | 39% | 157 nM | – | 7%
CC(C)(CS(=O)(=O)N1CCc2ccc(Br)cc2C1)N(O)C=O [Example 56, N-{2-[(7-bromo-3,4-dihydroisoquinolin-2(1H)-yl)sulfonyl]-1,1-dimethylethyl}-N-hydroxyformamide] | 34% | 2% | > 5000 nM | – | –
CC(C)(C)c1ccc2c(c1)CN(S(=O)(=O)CC(COCc1ccccc1)N(O)C=O)CC2 (stereo not drawn) [Example 57, N-(2-(benzyloxy)-1-{[(7-tert-butyl-3,4-dihydroisoquinolin-2(1H)-yl)sulfonyl]methyl}ethyl)-N-hydroxyformamide] | 0% | 0% | > 5000 nM | – | –
O=CN(O)C(COCc1ccccc1)CS(=O)(=O)N1CCc2ccc(Cl)cc2C1 (stereo not drawn) [Example 58, N-(2-(benzyloxy)-1-{[(7-chloro-3,4-dihydroisoquinolin-2(1H)-yl)sulfonyl]methyl}ethyl)-N-hydroxyformamide] | 68% | 41% | 56 nM | – | 4%
O=CN(O)C(COc1ccccc1)CS(=O)(=O)N1CCc2ccc(Cl)cc2C1 (stereo not drawn) [Example 61, N-[2-[(7-chloro-3,4-dihydroisoquinolin-2(1H)-yl)sulfonyl]-1-(phenoxymethyl)ethyl]-N-hydroxyformamide] | 22% | 12% | 89 nM | – | –
O=CN(O)C1(CS(=O)(=O)N2CCc3ccc(Cl)cc3C2)CCCC1 [Example 62, N-(1-{[(7-chloro-3,4-dihydroisoquinolin-2(1H)-yl)-sulfonyl]methyl}cyclopentyl)-N-hydroxyformamide] | 52% | 1% | 882 nM | – | –
